# According to patent publication US20240316060A1, “LASER AND BCL-2 INHIBITORS COMBINATION TO TREAT SOLID TUMORS” (Board of Regents, The University of Texas System, priority 2023, published 2024):
# System: 3D spheroids
# Assay: Annexin-V assay in 3D spheroids (flow-cytometry)
# Assay type: cell-based
# Conditions: without laser
# Description: Annexin-V Assay in 3D Spheroids
# Table 2 represents the flow-cytometry of solid tumors treated with various modalities including positive controls (DMSO and H2O2) compared with boron nitride/navitoclax formulations with and without laser excitation.
Compound,Early apoptosis [%],Late apoptosis [%],Live [%]
C[S+](C)[O-] [DMSO],9.51,5.23,85
"CC1(C)CCC(c2ccc(Cl)cc2)=C(CN2CCN(c3ccc(C(=O)NS(=O)(=O)c4ccc(N[C@H](CCN5CCOCC5)CSc5ccccc5)c(S(=O)(=O)C(F)(F)F)c4)cc3)CC2)C1 [Free NAVI, Navitoclax]",32.04,9.64,58
OO [H2O2],58.37,40.12,1
